Molecular target: unphosphorylated-BTK kinase domain (UP-BTK), GST-tagged human BTK (389-659aa) (Homo sapiens (Human), UniProt Q06187)
Assay: BTK kinase Lanthascreen binding assay
Experimental: BTK Kinase Lanthascreen Binding Assay:
A BTK kinase lanthascreen binding assay monitors compound binding to unphosphorylated-BTK kinase domain (UP-BTK), by competing with a fluorescent labeled tracer. […] Data were analyzed using Xlfit™ version 5.3 from ID Business Solutions (Guildford), Microsoft Excel add-in. pIC50 refers to the negative log of the IC50 in molar.

[1] = negative log of the IC50 in molar, 60 minutes incubation with 50 nM Tracer 236

Sequence of unphosphorylated-BTK kinase domain (UP-BTK), GST-tagged human BTK (389-659aa) (Q06187 389-659): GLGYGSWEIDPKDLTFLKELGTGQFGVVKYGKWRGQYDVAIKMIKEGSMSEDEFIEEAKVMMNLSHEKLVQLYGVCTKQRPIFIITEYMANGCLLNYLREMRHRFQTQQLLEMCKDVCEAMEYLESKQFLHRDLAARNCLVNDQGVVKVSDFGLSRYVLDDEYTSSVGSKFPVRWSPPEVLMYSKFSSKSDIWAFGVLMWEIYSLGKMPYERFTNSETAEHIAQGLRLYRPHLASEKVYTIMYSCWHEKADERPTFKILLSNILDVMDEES

SMILES | BTK_I_binding pIC50 [1] | further results
C=CC(=O)N1CC[C@@H](NC(=O)c2sc3nccc4c3c2NC(=O)N4c2cnc(OCC(C)C)cc2C)C1 (single isomer, unassigned) [Example 779, (R)—N-(1-Acryloylpyrrolidin-3-yl)-5-(*S)-(6-isobutoxy-4-methylpyridin-3-yl)-4-oxo-4,5-dihydro-3H-1-thia-3,5,8-triazaacenaphthylene-2-carboxamide] | 8.0 | –
C=CC(=O)N1CCC[C@@H](NC(=O)c2sc3nccc4c3c2NC(=O)N4c2ccc(CC(C)C)nc2C)C1 (single isomer, unassigned) [Example 792, (R)—N-(1-Acryloylpiperidin-3-yl)-5-(*S)-(6-isobutyl-2-methylpyridin-3-yl)-4-oxo-4,5-dihydro-3H-1-thia-3,5,8-triazaacenaphthylene-2-carboxamide] | 6.4 | –
Cc1cc(OC(C)C)ncc1N1C(=O)Nc2c(C(=O)N[C@@H]3CCNC3)sc3nccc1c23 (single isomer, unassigned) [Example 958, (R)-5-(*S)-(6-Isopropoxy-4-methylpyridin-3-yl)-4-oxo-N-(pyrrolidin-3-yl)-4,5-dihydro-3H-1-thia-3,5,8-triazaacenaphthylene-2-carboxamide] | – | BTK_I_binding pIC50 (unphosphorylated-BTK kinase domain, Lanthascreen, 60 minutes incubation, pIC50 = negative log of IC50 in molar): <6
C=CC(=O)N[C@@H]1COC[C@@H]1NC(=O)c1sc2nccc3c2c1NC(=O)N3c1cnc(Oc2ccccc2)cc1C (stereo in doubt) [Example 752, N-((*3R,*4S)-4-Acrylamidotetrahydrofuran-3-yl)-5-(*S)-(4-methyl-6-phenoxypyridin-3-yl)-4-oxo-4,5-dihydro-3H-1-thia-3,5,8-triazaacenaphthylene-2-carboxamide] | 6.4 | –
C=CC(=O)N1C[C@@H](F)C[C@@H](NC(=O)c2sc3nccc4c3c2NC(=O)N4c2ccc(Oc3ccccc3)cc2C)C1 [Example 3, N-((3R,5S)-1-Acryloyl-5-fluoropiperidin-3-yl)-5-(2-methyl-4-phenoxyphenyl)-4-oxo-4,5-dihydro-3H-1-thia-3,5,8-triazaacenaphthylene-2-carboxamide] | – | IC50 (read-out: BTK_I_binding pIC50 (converted)): 12.6 nM
O=C(CCCC(=O)NCCCOCCOCCOCCCNC(=O)CCCC[C@H]1SC[C@H]2NC(=O)N[C@H]21)NC/C=C/C(=O)N1CCCC(NC(=O)c2sc3nccc4c3c2NC(=O)N4c2ccc(Oc3ccccc3)cn2)C1 (stereo partly drawn) [Example 780, N^1-(15-oxo-19-((3aR,4R,6aS)-2-oxohexahydro-1H-thieno[3,4-d]imidazol-4-yl)-4,7,10-trioxa-14-azanonadecyl)-N^5-((E)-4-oxo-4-(3-(4-oxo-5-(5-phenoxypyridin-2-yl)-4,5-dihydro-3H-1-thia-3,5,8-triazaacenaphthylene-2-carboxamido)piperidin-1-yl)but-2-en-1-yl)glutaramide] | 6.3 | –

Further lines, with some results ahead:

BTK_I_binding pIC50 [1] | SMILES | further results
<6 | C=CC(=O)N1CCC[C@@H](NC(=O)c2sc3nccc4c3c2NC(=O)N4c2ccc(CC(C)C)nc2C)C1 (single isomer, unassigned) [Example 815, (R)—N-(1-Acryloylpiperidin-3-yl)-5-(*R)-(6-isobutyl-2-methylpyridin-3-yl)-4-oxo-4,5-dihydro-3H-1-thia-3,5,8-triazaacenaphthylene-2-carboxamide] | –
8.1 | C=CC(=O)N[C@H]1COC[C@H]1NC(=O)c1sc2nccc3c2c1NC(=O)N3c1cnc(Oc2ccccc2)cc1C (stereo in doubt) [Example 745, N-((3*S,4*R)-4-Acrylamidotetrahydrofuran-3-yl)-5-(*S)-(4-methyl-6-phenoxypyridin-3-yl)-4-oxo-4,5-dihydro-3H-1-thia-3,5,8-triazaacenaphthylene-2-carboxamide] | –

Reference: patent US10822348B2, “Inhibitors of Bruton's tyrosine kinase and methods of their use” (JANSSEN PHARMACEUTICA NV, priority 2015, dated 2020)
